Experiments:
Type in all cases: cell-based, human
NHFs [1] = assay: Toroid stability of NHFs in micro-molded agarose toroidal aggregation devices
Source text: Micro-molded, non-adhesive, cell aggregation devices, each having a plurality of cell aggregation recesses in the shape of either troughs or tori were made following the method described in Example 1. Agarose was employed as the hydrogel material and the cell aggregation recess features were as follows. Troughs were 400 μm wide with bottoms rounded with 200 μm radii. There were 21 rows of troughs of increasing length per gel. Each row had 11 troughs, two of which were 400 μm long, then one each of 600 μm through 1800 μm increasing at 200 μm lengths, then two 2200 μm troughs. The 2200 μm troughs were used for all experiments except those for FIG. 9c, which presents data from all trough lengths. […] A z-stack of images from the 4× objective with 10-50 μm between focal planes was collected at each time point using custom-designed Openlab 4.0.2 automations and images were analyzed using Volocity 3.1 (Improvision). […] The core circumference of tori was measured as a continuous circumferential line located at the estimated midpoint of the perpendicular width of the toroid. Micro-molded agarose toroidal aggregation devices (n=208) made as described in Example 9 were seeded with untreated NHFs and NHFs treated with 100 μM of the cell contraction inhibitor Y-27632 (Calbiochem (EMD Biosciences, Inc.), San Diego, Calif.) and the number of stable toroids with patent centers was measured over time. […]

NHF cells = assay: Rod length change kinetics of NHF aggregates in 2.2 mm trough features; details: NHF cells treated with 50 μM and 200 μM Y-27632, 2.2 mm troughs, FIG. 10
Source text: Micro-molded, non-adhesive, cell aggregation devices, each having a plurality of cell aggregation recesses in the shape of either troughs or tori were made following the method described in Example 1. Agarose was employed as the hydrogel material and the cell aggregation recess features were as follows. Troughs were 400 μm wide with bottoms rounded with 200 μm radii. There were 21 rows of troughs of increasing length per gel. Each row had 11 troughs, two of which were 400 μm long, then one each of 600 μm through 1800 μm increasing at 200 μm lengths, then two 2200 μm troughs. The 2200 μm troughs were used for all experiments except those for FIG. 9c, which presents data from all trough lengths. […] A z-stack of images from the 4× objective with 10-50 μm between focal planes was collected at each time point using custom-designed Openlab 4.0.2 automations and images were analyzed using Volocity 3.1 (Improvision). […] The core circumference of tori was measured as a continuous circumferential line located at the estimated midpoint of the perpendicular width of the toroid. […] Next, aggregation devices with trough features 2.2 mm in length were made as described in previous examples and seeded with NHF cells, NHF cells in serum-free medium, NHF cells treated with 50 μM of Y-27632 and NHF cells treated with 200 μM of Y-27632 and the lengths of resulting rod shaped aggregates were measured. […]

NHFs [2] = assay: Rod aggregation kinetics in 2.2 mm troughs after removal of drug (time-lapse); details: 100 μM Y-27632 initially, removed at 1.5 hrs and replaced with normal medium, FIG. 11
Protocol: Excess medium was aspirated from the wells and 200 μL of a single cell suspension was pipetted into the aggregation recess of each gel. Medium was added to the wells after a 1.5 hour incubation period wherein cells settled into the aggregation recesses and commenced the self-assembly process. Medium was exchanged every other day. […] A z-stack of images from the 4× objective with 10-50 μm between focal planes was collected at each time point using custom-designed Openlab 4.0.2 automations and images were analyzed using Volocity 3.1 (Improvision). Bright-field and fluorescent images were obtained using an Olympus IX70 microscope equipped with an AxioCam MRc digital camera. For the time-lapse experiments, medium was carefully added 20-30 minutes post seeding, before the devices were transferred to the time lapse microscope. Measurements of morphological changes were performed with ImageJ data analysis software. The length of a rod was the length of a line drawn from end to end of the structure (long-axis length). The core circumference of tori was measured as a continuous circumferential line located at the estimated midpoint of the perpendicular width of the toroid. Gels with trough features 2.2 mm in length were then seeded with NHFs or with NHFs treated initially with 100 μM Y-27632 and imaged every 10 minutes. At 1.5 hrs, the Y-27632 solution was removed and replaced with normal medium. […]

NHFs [3] = assay: NHF aggregation in honeycomb-structured cell aggregation devices; details: NHFs maintained in Y-27632 solution, day 5; untreated NHFs contracted up and off of pegs within 1 day
Protocol: In this experiment, cell aggregation devices were formed from agarose gels as described above, but agarose gels were micromolded with honeycomb-shaped recesses instead of troughs or a tori. The honeycomb-shaped recesses are essentially overlapping, tori-shaped recesses: There are 13 pegs (1 central, 6 concentric around the central peg and 6 outer pegs at 0°, 60°, 120°, 180°, 240°, 300° and 360°) within a network of recesses […] and with bottoms rounded with 200 μm radii. Time lapse microscopy was again used to monitor self-assembly of the NHF cells alone, the H35 cells alone and 50:50 mixtures of NHF cells and H35 cells as described above. The results are shown in FIG. 8, at time 0 (top row), 10 hours post-seeding (middle row) and 20 hours post-seeding (bottom row) with the aggregated NHF cells in column A, the aggregated H35 cells in column B and the aggregated 1:1 mixture of NHF and H35 cells in column C. The aggregated NHF cells quickly thinned, became taught and popped off the outer pegs of the honeycomb shaped substrate. Once freed from the substrate, the honeycomb-shaped aggregates of NHF cells contracted in a uniform manner but maintained its shape. The aggregated H35 cells thinned more slowly, maintaining contact with the outer pegs and staying within the molds. […]

NHFs [4] = assay: Viability staining of treated NHF honeycombs; details: NHF honeycombs maintained in Y-27632 solution, day 5
Protocol: NHF cells alone, H35 cells alone, and 50:50 mixtures of NHF and H35 cells were seeded into the trough aggregation devices and the tori aggregation devices as described in Example 2 and allowed to aggregate. Briefly, NHF cells derived from neonatal foreskins and H35 rat hepatoma cells were expanded in DMEM supplemented with 10% fetal bovine serum (FBS) and 1% penicillin/streptomycin solution. NHF cells were incubated in a 10% CO2 atmosphere and H35 cells were incubated in 5% CO2. The mixture experiments were a 50:50 mix of both cell types and were maintained in a 5% CO2 atmosphere. The cells were stained with fluorescent dyes (NHF cells with CellTracker Red CMTPX and H35 cells with CellTracker Green CMFDA from Invitrogen) to allow their aggregation in the mixed populations to be followed and their aggregated position visualized. Cells used in experiments were between passage 3 and passage 9. Cell viability was determined using the LIVE/DEAD Viability/Cytotoxicity Kit (Invitrogen) in accordance with the manufacturer's instructions.
Lastly, NHFs were seeded onto honeycomb-structured cell aggregation devices made as described in Example 9B and maintained in Y-27632 solution.

## C[C@@H](N)[C@H]1CC[C@H](C(=O)Nc2ccncc2)CC1 [Y-27632]
NHFs [1]; 100 μM Y-27632, day 1, n=104, all untreated NHFs had progressed to spheroids
  treated NHFs still having patent centers (stable toroids): 90%
NHFs [1]; 100 μM Y-27632, day 2, n=104
  treated NHFs still having patent centers (stable toroids): 5%
NHF cells
  effect on length change kinetics of rod shaped aggregates: dramatically slowed length change kinetics in rods
NHFs [2]
  aggregation kinetics after removal of the drug: progressing with similar kinetics to those of untreated NHFs
NHFs [3]
  maintenance of honeycomb structure: remained intact in the honeycomb-shaped recesses at day 5
NHFs [4]
  cell viability (viability staining): majority of the cells were living at day 5
